24 compounds from US20130121994A1, “TRIAZOLOPYRIDINE DERIVATIVES” (BAYER INTELLECTUAL PROPERTY GMBH, priority 2009, published 2013) can be followed below.

The assay addresses T1, human kinase Mps-1 (Homo sapiens, UniProt P33981).
T1 construct: N-terminally GST-tagged human full length recombinant Mps-1 kinase; GST (N); purchased Invitrogen, Karslruhe, Germany PV4071
T1 sequence (P33981 1-857): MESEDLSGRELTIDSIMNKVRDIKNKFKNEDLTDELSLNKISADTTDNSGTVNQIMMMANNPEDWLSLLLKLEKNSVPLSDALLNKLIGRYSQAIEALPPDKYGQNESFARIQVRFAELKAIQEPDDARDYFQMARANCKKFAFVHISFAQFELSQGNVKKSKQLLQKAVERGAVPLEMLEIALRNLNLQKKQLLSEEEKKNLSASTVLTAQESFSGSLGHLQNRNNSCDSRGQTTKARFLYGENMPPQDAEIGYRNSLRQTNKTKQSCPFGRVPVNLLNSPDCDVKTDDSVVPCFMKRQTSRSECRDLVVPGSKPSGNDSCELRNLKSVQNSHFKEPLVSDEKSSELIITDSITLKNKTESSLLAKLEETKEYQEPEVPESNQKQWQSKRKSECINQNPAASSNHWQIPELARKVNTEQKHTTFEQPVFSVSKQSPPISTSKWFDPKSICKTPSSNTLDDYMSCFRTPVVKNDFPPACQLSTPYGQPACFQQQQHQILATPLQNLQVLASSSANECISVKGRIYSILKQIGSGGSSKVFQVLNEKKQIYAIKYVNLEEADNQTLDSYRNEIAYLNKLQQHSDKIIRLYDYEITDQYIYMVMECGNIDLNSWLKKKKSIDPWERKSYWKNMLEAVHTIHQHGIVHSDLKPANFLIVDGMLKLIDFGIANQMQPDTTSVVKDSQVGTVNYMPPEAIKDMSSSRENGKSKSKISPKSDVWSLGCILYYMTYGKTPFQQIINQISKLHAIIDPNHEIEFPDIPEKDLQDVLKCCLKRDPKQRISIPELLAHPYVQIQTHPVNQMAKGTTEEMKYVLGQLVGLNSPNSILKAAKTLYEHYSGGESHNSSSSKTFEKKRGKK
Nature of the assay: Mps-1 kinase assay (HTRF). The assay is classed as biochemical.

`CNC(=O)c1ccc(Nc2nc3ccc(-c4cc(C)c(O)c(C)c4)cn3n2)cc1` [Example 1.15, 4-{[6-(4-hydroxy-3,5-dimethylphenyl)[1,2,4]triazolo[1,5-a]pyridin-2-yl]amino}-N-methylbenzamide] gave a half-maximal inhibitory concentration (IC50) of 23 nM. As for `COc1cc(C(=O)NCC(C)(C)O)ccc1Nc1nc2ccc(-c3ccc(C(=O)NCCC(F)(F)F)cc3)cn2n1` [Example 11.025, N-(2-hydroxy-2-methylpropyl)-3-methoxy-4-[(6-{4-[(3,3,3-trifluoropropyl)carbamoyl]phenyl}[1,2,4]tria-zolo[1,5-a]pyridin-2-yl)amino]benzamide], the figure is 7.31 nM; as for `CC(=O)Nc1cccc(-c2ccc3nc(Nc4ccc(C(C)C)cc4)nn3c2)c1` [Example 2.9, N-[3-(2-{[4-(propan-2-yl)phenyl]amino}[1,2,4]triazolo[1,5-a]pyridin-6-yl)phenyl]acetamide], 1800 nM. For the compound `CCNC(=O)c1ccc(Nc2nc3ccc(-c4cccc(C(=O)NCC(C)(C)C)c4)cn3n2)c(OC)c1` [Example 11.079, 4-[(6-{3-[(2,2-dimethylpropyl)carbamoyl]phenyl}[1,2,4]tria-zolo[1,5-a]pyridin-2-yl)amino]-N-ethyl-3-methoxybenzamide], the half-inhibitory concentration (IC50) was no more than 1 nM. As for `COc1ccc(C#N)cc1Nc1nc2ccc(-c3cc(C)c(O)c(C)c3)cn2n1` [Example 1.13, 3-{[6-(4-hydroxy-3,5-dimethylphenyl)[1,2,4]triazolo[1,5-a]pyridin-2-yl]amino}-4-methoxybenzonitrile], the figure is 640 nM; as for `CCOc1cc(C(=O)NCCS(C)(=O)=O)ccc1Nc1nc2ccc(-c3cccc(C(=O)NCC(C)(C)C)c3)cn2n1` [Example 11.085, 4-[(6-{3-[(2,2-dimethylpropyl)carbamoyl]phenyl}[1,2,4]tria-zolo[1,5-a]pyridin-2-yl)amino]-3-ethoxy-N-[2-(methylsulfonyl)ethyl]benzamide], no more than 1 nM.

In turn, `N#Cc1ccccc1Nc1nc2ccc(-c3cccc(C(=O)NCC(F)(F)F)c3)cn2n1` [Example 11.044, 3-{2-[(2-cyanophenyl)amino][1,2,4]triazolo[1,5-a]pyridin-6-yl}-N-(2,2,2-trifluoroethyl)benzamide] registered an IC50 of 1.47 nM. For `CC(C)[C@@H](C)NC(=O)c1cccc(-c2ccc3nc(Nc4ccccc4C#N)nn3c2)c1` [Example 11.047, 3-{2-[(2-cyanophenyl)amino][1,2,4]triazolo[1,5-a]pyridin-6-yl}-N-[(2R)-3-methylbutan-2-yl]benzamide] the value was 4.15 nM; for `CS(=O)(=O)Nc1cccc(-c2ccc3nc(Nc4ccccc4C#N)nn3c2)c1` [Example 3.5, N-(3-{2-[(2-cyanophenyl)amino] [1,2,4]triazolo[1,5-a]pyridin-6-yl}phenyl)methane-sulfonamide], 240 nM; for `CC(C)(O)CNC(=O)c1cccc(-c2ccc3nc(Nc4ccccc4C#N)nn3c2)c1` [Example 11.062, 3-{2-[(2-cyanophenyl)amino][1,2,4]triazolo[1,5-a]pyridin-6-yl}-N-(2-hydroxy-2-methylpropyl)benzamide], 13.9 nM. As to `CC(F)(F)CNC(=O)c1cccc(-c2ccc3nc(Nc4ccccc4C#N)nn3c2)c1F` [Example 11.066, 3-{2-[(2-cyanophenyl)amino][1,2,4]triazolo[1,5-a]pyridin-6-yl}-N-(2,2-difluoropropyl)-2-fluorobenzamide], the IC50 amounted to 26.7 nM. For `CC(C)(C)CNC(=O)c1cccc(-c2ccc3nc(Nc4ccccc4C#N)nn3c2)c1` [Example 11.042, 3-{2-[(2-cyanophenyl)amino][1,2,4]triazolo[1,5-a]pyridin-6-yl}-N-(2,2-dimethylpropyl)benzamide] the value was no more than 1 nM; for `CC(C)(C)CCC(=O)Nc1ccc(-c2ccc3nc(Nc4ccccc4C#N)nn3c2)cc1` [Example 11.100, N-(4-{2-[(2-cyanophenyl)amino][1,2,4]triazolo[1,5-a]pyridin-6-yl}phenyl)-4,4-dimethylpentanamide], 8.08 nM; for `N#Cc1ccccc1Nc1nc2ccc(-c3ccc4cc[nH]c4c3)cn2n1` [Example 3.6, 2-{[6-(1H-indol-6-yl)[1,2,4]triazolo[1,5-a]pyridin-2-yl]amino}benzonitrile], 940 nM. As for `CC(C)(C)CNC(=O)c1cccc(-c2ccc3nc(Nc4ccccc4C#N)nn3c2)c1F` [Example 11.058, 3-{2-[(2-cyanophenyl)amino][1,2,4]triazolo[1,5-a]pyridin-6-yl}-N-(2,2-dimethylpropyl)-2-fluorobenzamide], the figure is 12.8 nM; as for `N#Cc1ccccc1Nc1nc2ccc(-c3ccc(F)c(C(=O)O)c3)cn2n1` [Example 11.073, 5-{2-[(2-cyanophenyl)amino][1,2,4]triazolo[1,5-a]pyridin-6-yl}-2-fluorobenzoic acid], 43.5 nM; as for `COc1cc(C(=O)NC(C)(C)C)ccc1Nc1nc2ccc(-c3cccc(C(=O)NCC(F)(F)F)c3)cn2n1` [Example 11.077, N-tert-butyl-3-methoxy-4-[(6-{3-[(2,2,2-trifluoroethyl)carbamoyl]phenyl}[1,2,4]triazolo [1,5-a]pyridin-2-yl)amino]benzamide], no more than 1 nM. Compound `C[C@H](NC(=O)c1cccc(-c2ccc3nc(Nc4ccccc4C#N)nn3c2)c1)C(C)(C)C` [Example 11.057, 3-{2-[(2-cyanophenyl)amino][1,2,4]triazolo[1,5-a]pyridin-6-yl}-N-[(2S)-3,3-dimethylbutan-2-yl]benzamide] came in with an IC50 of 12.2 nM. For `COc1cccnc1Nc1nc2ccc(-c3cccc(NC(C)=O)c3)cn2n1` [Example 2.11, N-(3-{2-[(3-methoxypyridin-2-yl)amino][1,2,4]triazolo [1,5-a]pyridin-6-yl}phenyl)acetamide] the value was 3500 nM. As for `COc1ccc(F)cc1Nc1nc2ccc(-c3cc(C)c(O)c(C)c3)cn2n1` [Example 1.6, 4-{2-[(5-fluoro-2-methoxyphenyl)amino] [1,2,4]triazolo[1,5-a]pyridin-6-yl}-2,6-dimethylphenol], the figure is 150 nM; as for `CC(=O)Nc1ccc(-c2ccc3nc(Nc4ccccc4C#N)nn3c2)cc1` [Example 4.3, N-(4-{2-[(2-cyanophenyl)amino][1,2,4]triazolo[1,5-a]pyridin-6-yl}phenyl)acetamide], 28 nM; as for `CCOc1cc(C(=O)NC(C)(C)C)ccc1Nc1nc2ccc(-c3cccc(C(=O)NCC(C)(C)C)c3)cn2n1` [Example 11.089, N-tert-butyl-4-[(6-{3-[(2,2-dimethylpropyl)carbamoyl]phenyl}[1,2,4]tria-zolo[1,5-a]pyridin-2-yl)amino]-3-ethoxybenzamide], 1.01 nM. As for `COc1cc(C(=O)N(C)CCN(C)C(=O)OC(C)(C)C)ccc1Nc1nc2ccc(-c3ccc(C(=O)NCC(F)(F)F)cc3)cn2n1` [Example 11.021, tert-butyl {2-[{3-methoxy-4-[(6-{4-[(2,2,2-trifluoroethyl)carbamoyl]phenyl}[1,2,4]triazolo [1,5-a]pyridin-2-yl)amino]benzoyl}(methyl)amino]ethyl}methyl-carbamate], the IC50 came to 3.5 nM. As for `N#Cc1ccccc1Nc1nc2ccc(-c3cccc(C(=O)NCCC(F)(F)F)c3F)cn2n1` [Example 11.067, 3-{2-[(2-cyanophenyl)amino][1,2,4]triazolo[1,5-a]pyridin-6-yl}-2-fluoro-N-(3,3,3-trifluoropropyl)benzamide], the figure is 23.9 nM.
